Marks after values point to notes of the source that are not given here.
What was measured:
[1] = biological target: T1, Human-SGLT1 (Homo sapiens, UniProt P13866); assay: SGLT1 glucose transport test ([14C]-labeled methyl a-D-glucopyranoside uptake); format: cell-based; details: cells stably expressing Human-SGLT1; 37° C., 2 hours
T1 sequence (P13866 1-664): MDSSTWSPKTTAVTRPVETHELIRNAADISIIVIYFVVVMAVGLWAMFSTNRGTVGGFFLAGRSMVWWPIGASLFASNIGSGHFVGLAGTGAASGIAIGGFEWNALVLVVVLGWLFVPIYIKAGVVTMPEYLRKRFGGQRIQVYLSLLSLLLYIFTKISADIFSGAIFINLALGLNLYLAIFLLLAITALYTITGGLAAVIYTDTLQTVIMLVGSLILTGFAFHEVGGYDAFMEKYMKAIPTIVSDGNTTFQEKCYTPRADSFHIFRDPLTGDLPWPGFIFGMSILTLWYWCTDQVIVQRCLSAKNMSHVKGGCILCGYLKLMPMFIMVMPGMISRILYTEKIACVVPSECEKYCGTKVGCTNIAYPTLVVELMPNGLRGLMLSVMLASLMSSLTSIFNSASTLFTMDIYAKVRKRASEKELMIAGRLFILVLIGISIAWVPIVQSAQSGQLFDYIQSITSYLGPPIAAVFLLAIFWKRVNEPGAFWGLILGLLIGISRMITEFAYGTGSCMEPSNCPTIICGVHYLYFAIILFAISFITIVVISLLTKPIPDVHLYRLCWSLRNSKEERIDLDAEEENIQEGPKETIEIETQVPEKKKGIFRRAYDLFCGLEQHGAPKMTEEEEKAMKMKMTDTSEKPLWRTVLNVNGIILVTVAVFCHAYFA
Description: Biological Activity Experiment 1: SGLT1 Glucose Transport Test.
(§1) 1. Purpose of the Experiment:
The effect of the compound on the glucose transport activity of SGLT1 transporter was detected by measuring the amount of [′C]-labeled glucose entering cells with high expression of Human-SGLT1.
The cells stably expressing Human-SGLT1 were constructed by Wuxi AppTec(Shanghai) Co., Ltd. SGLT1 cells were laid in Cytostar-T (PerkinElmer) 96-well cell culture plate and cultured overnight in 5% CO2 environment at 37° C.
2.2. SGLT1 Glucose Transport Test.
(§2) 1) Experimental buffer, including: 10 mM 4-hydroxyethylpiperazineethanesulfonic acid (HEPES), 1.2 mM magnesium chloride (MgCl2), 4.7 mM potassium chloride (KCl), 2.2 mM calcium chloride (CaCl2) and 120 mM sodium chloride (NaCl).
2) Compounds were serially diluted in 100% dimethyl sulfoxide (DMSO) starting at 1 mM and make a 5-folds, 8 points serials compound dilutions.
3) 3 μM [′^4C]-labeled methyl a-D-glucopyranoside was prepared with the experimental buffer.
4) The cells were treated with 49 uL of the experimental buffer, 1 μL of the gradient diluted compound and 50 μL of the 3 μM [^14C]-labeled methyl a-D-lucopyranosid solution at 37° C. for 2 hours.
5) The data were read with an isotope detector Micro beta Reader.
6) The IC50 value of the tested compound was obtained by the calculation formula: log(inhibitor) vs. response—Variable slope, using GraphPad Prism 5.0 software.

[2] = biological target: T2, Human-SGLT2 (Homo sapiens, UniProt P31639); assay: SGLT2 glucose transport test ([14C]-labeled methyl a-D-glucopyranoside uptake); format: cell-based; details: cells stably expressing Human-SGLT2; 37° C., 2 hours
T2 sequence (P31639 1-672): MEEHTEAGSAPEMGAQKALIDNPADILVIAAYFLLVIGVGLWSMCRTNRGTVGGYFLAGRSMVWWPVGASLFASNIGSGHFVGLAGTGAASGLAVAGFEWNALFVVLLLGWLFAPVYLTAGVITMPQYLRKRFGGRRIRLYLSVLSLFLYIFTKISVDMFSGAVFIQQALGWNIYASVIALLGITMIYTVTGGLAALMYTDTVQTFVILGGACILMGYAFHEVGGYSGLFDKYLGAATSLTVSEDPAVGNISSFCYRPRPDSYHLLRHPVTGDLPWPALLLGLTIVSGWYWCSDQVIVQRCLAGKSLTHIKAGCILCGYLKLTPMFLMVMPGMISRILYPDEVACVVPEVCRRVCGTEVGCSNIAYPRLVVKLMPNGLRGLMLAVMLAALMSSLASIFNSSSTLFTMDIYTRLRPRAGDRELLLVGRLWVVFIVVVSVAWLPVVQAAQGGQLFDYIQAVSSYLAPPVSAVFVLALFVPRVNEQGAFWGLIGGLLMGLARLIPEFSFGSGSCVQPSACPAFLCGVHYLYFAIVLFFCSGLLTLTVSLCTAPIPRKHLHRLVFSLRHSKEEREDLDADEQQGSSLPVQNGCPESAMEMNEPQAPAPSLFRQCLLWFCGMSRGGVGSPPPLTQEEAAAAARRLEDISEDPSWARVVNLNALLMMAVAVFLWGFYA
Protocol: Biological Activity Experiment 2: SGLT2 Glucose Transport Test.
as §1
The effect of the compound on the glucose transport activity of SGLT2 transporter was detected by measuring the amount of [^14C]-labeled glucose entering cells with high expression of Human-SGLT2.
The cells stably expressing Human-SGLT2 were constructed by Wuxi AppTec(Shanghai) Co., Ltd. SGLT2 cells were laid in 96-well cell culture plate (Greiner) and cultured overnight in 5% CO2 environment at 37° C.
2.2. SGLT2 Glucose Transport Test.
as §2
2) Stop buffer, including: 10 mM 4-hydroxyethylpiperazineethanesulfonic acid (HEPES), 1.2 mM magnesium chloride (MgCl2), 4.7 mM potassium chloride (KCl), 2.2 mM calcium chloride (CaCl2), 120 mM sodium chloride (NaCl) and 1 μM LX4211.
3) Compounds were serially diluted in 100% dimethyl sulfoxide (DMSO) starting at 10 uM and make a 5-folds, 8 points serials compound dilutions.
4) 6 μM [^14C]-labeled methyl a-D-lucopyranosid was prepared with the experimental buffer.
5) The cells were treated with 49 uL of the experimental buffer, 1 μL of the gradient diluted compound and 50 μL of the 6 μM [^14C]-labeled methyl a-D-lucopyranosid solution at 37° C. for 2 hours.
6) The solution was sucked out from holes, and the cells were rinsed with the stop buffer for 3 times.
7) The cells were lysed with 50 ul of 10% sodium hydroxide solution, the cell lysate was sucked into a scintillation tube, into which 2 mL scintillation solution was then added.
8) The data were read with an isotope detector Tricarb.
9) The IC50 value of the tested compound was obtained by the calculation formula: log(inhibitor) vs. response—Variable slope, using GraphPad Prism 5.0 software.

[3] = In vivo pharmacokinetics in rats; details: male SD rats
Description: Study on the In Vivo Pharmacokinetics in Rats
The purpose of the experiment: Male SD rats were used as test animals and were given a single administration to determine the plasma concentration of the compound and evaluate the pharmacokinetic behavior.
Experimental method: Six healthy adult male SD rats were divided into 2 groups, with 3 rats in an intravenous injection group and 3 rats in an oral administration group. In the intravenous injection group, the test compound was mixed with an appropriate amount of vehicle (10% N-methyl pyrrolidone (NMP)/10% polyethylene glycol-15 hydroxystearate (available from solutol)/80% water), then vortexed and sonicated to prepare 0.2 mg/mL clear solution, which was filtered by microporous membrane. In the oral administration group, 10% N-methyl pyrrolidone (NMP)/10% polyethylene glycol-15 hydroxy stearate (available from solutol)/80% water was used as a vehicle and mixed with the test compound, then vortexed and sonicated to prepare 0.40 mg/mL clear solution. The rats were given intravenous administration at a dose of 1 mg/kg or oral administration at a dose of 2 mg/kg. Whole blood was collected at a certain period of time to prepare the plasma. The drug concentration of the plasma was analyzed by LC-MS/MS method, and the pharmacokinetic parameters were calculated using Phoenix WinNonlin software (Pharsight Company, USA).

[4] = system: SD rats; assay: Oral glucose tolerance test (OGTT) in rats, first time; format: in vivo; details: first study, male SD rats, 10 mg/kg single intragastric administration
Protocol: Experimental Example 3. Study on In Vivo Efficacy of Oral Glucose Tolerance Test (OGTT) in Rats: Study on the In Vivo Efficacy of Oral Glucose Tolerance Test (OGTT) in Rats for the First Time
(§3) The experimental animals were allowed to adapt to the environment in the animal room for one week after they arrived.
(§4) The animals fasted in the metabolic cage for 18 hours, then were given drugs or vehicle (2 ml/kg) according to the above table, and subsequently were immediately given 50% glucose solution (2 g/kg, 4 ml/kg).
(§5) 2 hours after the administration of glucose solution, feed intake was restored. Blood samples were taken at 0 min, 15 min, 30 min, 45 min, 60 min and 120 min respectively, and urine samples were collected at 0-24 h to test blood glucose, urine glucose (mg/200 g) and urine volume respectively.
(§6) All values are represented as averages. Statistical analysis was performed using Graphpad Prism 6 one-way analysis of variance and Tukey's multiple comparison test. P value of less than 0.05 is considered statistically significant.

[5] = system: SD rats; assay: Oral glucose tolerance test (OGTT) in rats, second time; format: in vivo; details: second study, male SD rats, 10 mg/kg single intragastric administration
Protocol: Study on the In Vivo Efficacy of Oral Glucose Tolerance Test (OGTT) in Rats for the Second Time:
as §3, §4, §5, §6

| IC50 [1] | IC50 [2] | Compound | also measured |
| --- | --- | --- | --- |
| 17.2 nM | 5.4 nM | COc1ccc(C2O[C@H](SC)[C@@H](O)[C@H](O)[C@H]2O)cc1Cc1ccc(C2=CCC(F)(F)CC2)cc1 (stereo partly drawn) [WXD008] |  |
| 233 nM | 4.68 nM | CS[C@H]1OC(c2ccc(F)c(Cc3ccc(C4=CCC(F)(F)CC4)cc3)c2)[C@H](O)[C@@H](O)[C@@H]1O (stereo partly drawn) [WXD009] |  |
| 21.9 nM | 1.78 nM | CS[C@H]1OC(c2ccc(C)c(Cc3ccc(C4=CCCCC4)cc3)c2)[C@H](O)[C@@H](O)[C@@H]1O (stereo partly drawn) [WXD005] |  |

The remaining lines, values behind:

| Compound | IC50 [1] | IC50 [2] | also measured |
| --- | --- | --- | --- |
| CS[C@H]1O[C@@H](c2ccc(C)c(Cc3ccc(C4=CCC5(CC4)OCCO5)cc3)c2)[C@H](O)[C@@H](O)[C@@H]1O [WXD002] | 55.6 nM | 1.01 nM |  |
| CS[C@H]1OC(c2ccc(C)c(Cc3ccc(C4=CCOCC4)cc3)c2)[C@H](O)[C@@H](O)[C@@H]1O (stereo partly drawn) [WXD004] | 14.1 nM | 1.49 nM |  |
| CCOc1ccc(Cc2cc([C@@H]3O[C@H](SC)[C@@H](O)[C@H](O)[C@H]3O)ccc2Cl)cc1 [Sotagliflozin, reference compound] |  | 1.15 nM | Oral DNAUC (AUCPO/Dose) ([3]; oral 2 mg/kg): 969 nM · h/mpk; clearance ([3]; rat, plasma, intravenous 1 mg/kg or oral 2 mg/kg, read-out: Cl (clearance rate)): 22.6 mL/min/kg; half-life ([3]; rat, plasma, intravenous 1 mg/kg or oral 2 mg/kg, read-out: T1/2 (half-life) (converted)): 1.27 h; Vd ([3]; rat, plasma, intravenous 1 mg/kg or oral 2 mg/kg, read-out: Vdss (distribution volume)): 2.01 L/kg; bioavailability ([3]; rat, plasma, intravenous 1 mg/kg, oral 2 mg/kg, read-out: F % (oral bioavailability)): 54.8%; Cmax ([3]; rat, single administration, intravenous 1 mg/kg or oral 2 mg/kg, plasma): 364 nM; OGTT blood glucose level AUC0-2 hr ([4]; glucose 2 g/kg): 823 mmol/L/min; Urine glucose level ([4]; urine 0-24 h): 2424.0**** mg/200 g, BW; Urine volume ([4]; urine 0-24 h): 39.74**** mL/200 gBW; OGTT blood glucose level AUC0-2 hr ([5]; glucose 2 g/kg): 790 mmol/L/min; Urine glucose level ([5]; urine 0-24 h): 2843.2**** mg/200 g, BW; Urine volume ([5]; urine 0-24 h): 26.4**** mL/200 g, BW |
| CS[C@H]1O[C@@H](c2ccc(C)c(Cc3ccc(C4=CCOCC4)s3)c2)[C@H](O)[C@@H](O)[C@@H]1O [WXD007] | 30.1 nM | 1.35 nM |  |
| CS[C@H]1O[C@@H](c2ccc(C)c(Cc3ccc(C4=CCC(F)(F)CC4)s3)c2)[C@H](O)[C@@H](O)[C@@H]1O [WXD006] | 39.2 nM | 1.02 nM |  |
